Experimental data from article PMC10823514, “Target Identification of a Class of Pyrazolone Protein Aggregation Inhibitor Therapeutics for Amyotrophic Lateral Sclerosis” (ACS Central Science, 2023).

Columns and labels:
[1] = target: T1, 25 kDa protein band in PC12 SOD1^G93A cells (Rattus norvegicus, UniProt P62260); assay: Live-cell photoaffinity labeling: concentration-dependent covalent modification of the 25 kDa band by PRAPP (in-gel fluorescence, Hill fit); assay type: binding; settings: all three treatment scenarios
T1 construct: we identified a 25 kDa covalently modified protein band in the PC12 SOD1^G93A cell line; endogenous in cells; host or cells: PC12-SOD1^G93A cells (live-cell UV photolabeling, then lysis)
T1 sequence (P62260 1-255): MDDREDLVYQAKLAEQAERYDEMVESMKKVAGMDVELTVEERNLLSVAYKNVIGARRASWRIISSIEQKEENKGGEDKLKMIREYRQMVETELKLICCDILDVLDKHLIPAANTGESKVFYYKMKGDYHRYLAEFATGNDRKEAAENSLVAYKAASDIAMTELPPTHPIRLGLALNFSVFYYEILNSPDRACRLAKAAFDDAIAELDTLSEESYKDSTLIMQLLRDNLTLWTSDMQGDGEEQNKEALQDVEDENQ
Description: PC12-SOD1^G93A cells were cultured and grown to 90% confluency (in 6-well plates) and washed once with PBS followed by the addition of serum medium containing the appropriate analyte at the indicated concentrations. Three incubation scenarios were studied (at 37 °C): Scenario 1) 12 h preincubation with PRAPP in the absence of MG-132; Scenario 2) 12 h preincubation with PRAPP in the absence of MG-132 followed by an additional 24 h incubation (control); and Scenario 3) 12 h preincubation with PRAPP followed by the addition of MG-132 (100 nM) and an additional 24 h incubation. After incubation, the medium was discarded and cells were washed with PBS (1 × 300 μL). […] Each lysate was centrifuged at 4 °C for 5 min at 13,000 rpm, and the resulting supernatant was concentrated with a centrifugal filter (Amicon Ultra Centrifugal Filters 3K cutoff, Millipore), normalized to 1.0 mg/mL by the Bradford assay, and analyzed immediately or stored at −80 °C for subsequent analysis.
In a darkened (wrapped with aluminum foil) Eppendorf tube, each lysate (30 μL [30 μg]) was incubated with 10 μL of the freshly prepared “click” premix containing CuSO4 (5 mM), sodium ascorbate (5 mM), TBTA (200 μM), and N3–Alexa-647 (50 μM) were added to PBS (50 mM, pH 7.4). […] In-gel fluorescence was monitored (excitation λ = 635 nm; emission λ = 670 nm) using a Typhoon 9400 (GE Healthcare) fluorimager. […]

14-3-3-G = target: T2, 14-3-3-G (Homo sapiens, UniProt P61981); assay: Fluorescent thermal shift assay (FTSA) with 14-3-3-G; assay type: binding; settings: 0 and 100 μM P2
T2 construct: purchased Abchem (so in the source)
T2 sequence (P61981 1-247): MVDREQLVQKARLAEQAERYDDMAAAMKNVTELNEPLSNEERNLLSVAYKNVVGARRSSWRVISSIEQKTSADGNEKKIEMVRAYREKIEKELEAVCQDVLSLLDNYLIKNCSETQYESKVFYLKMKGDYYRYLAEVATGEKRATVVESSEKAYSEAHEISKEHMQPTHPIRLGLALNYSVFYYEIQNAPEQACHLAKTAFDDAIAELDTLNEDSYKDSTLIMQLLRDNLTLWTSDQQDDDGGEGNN
Description: His-tagged 14-3-3-E, B, and H plasmids were purchased from Addgene (plasmid ID# 31562, 39128, and 38814, respectively). E. coli (BL21) were transformed with extracted plasmids via heat shock and plated on selected media. Individual colonies were selected, grown, and sequenced to confirm gene presence. 1 L cultures were grown to an OD600 of 0.6 at 37 °C and 220 rpm. Protein expression was induced with 1 mM IPTG and expressed for 12 h at 100 rpm and room temperature (approximately 25 °C). Cells were spun down at 4000 rpm for 15 min at 4 °C and resuspended in lysis buffer containing 50 mM Tris (7.4), 150 mM NaCl, 0.08% DDM, 5 mM imidazole, and 5% glycerol (with an EDTA-free complete mini protease inhibitor cocktail). Cells were lysed via sonication, and the lysate was separated from cell debris by centrifugation at 15,000 rpm, 4 °C, for 45 min. The His-tagged protein was purified using QIAGEN Ni-NTA superflow columns, and the His-tag was removed with TEV protease. His-tag-removed proteins were further purified by size exclusion chromatography. His tag removal and size exclusion chromatography purification were done at the Northwestern University Protein Production core. […]
All of the FTSA experiments were conducted in HEPES buffer (60 mM HEPES, 150 mM NaCl, pH 7.4). […] The fluorescence was measured on a Bio-Rad CFX384 real-time PCR instrument.

SMILES | concentration of saturation binding kinetics [1] | binding (Tm shift) (14-3-3-G)
C#CCN(Cc1cc(=O)[nH][nH]1)Cc1c(F)c(F)c(N=[N+]=[N-])c(F)c1F [PRAPP, 5-(((4-Azido-2,3,5,6-tetrafluorobenzyl)(prop-2-yn-1-yl)amino)methyl)-1,2-dihydro-3H-pyrazol-3-one] | around 30 μM | –
O=c1cc(COc2cc(Cl)cc(Cl)c2)[nH][nH]1 [P2] | – | no binding
